One block for each molecule: values may come before it. Peptide text beside a SMILES is read from it. * marks the point of attachment. Cbz = O=C(OCc1ccccc1)*
Key:
[1] = test system: IRE1α in MyD88 KO Flt3L-derived BMDCs; test: IRE1α activation in MyD88 KO Flt3L-derived BMDCs (immunoblot); format: cell-based, mouse; conditions: ovalbumin 500 μg/ml or LPS 10 μg/ml, 4 h
Protocol: (§1) Figure S1. Antigen pulsing of BMDCs activates IRE1α. (A) BMDCs were treated with MG132 (5 μM) or ovalbumin (500 μg/ml) for indicated time points and analyzed by IB. (B) BMDCs were pulsed with ovalbumin (500 μg/ml) and G9668 (3 μM) for indicated time periods and analyzed by IB. (C) Molecular structure, potency, and kinase selectivity of G9668. (D) Schematic representation of G9668 interaction with 220 kinases at 1 μM. Size and color of circles represent interaction strength. Analysis was conducted by KinomeScan. (E) BMDCs were pulsed for 4 h with APC-tagged ovalbumin or soluble CD4-Fc protein (500 μg/ml) with amiloride (10 μM); uptake of protein was assayed by flow cytometry (n = 3). (F) WT or MyD88 KO Flt3L-derived BMDCs were pulsed with ovalbumin (500 μg/ml) or soluble CD4-Fc protein (500 μg/ml), or treated with LPS (10 μg/ml) for 4 h and analyzed by IB. (G) MEFs and BMDCs were pulsed with ovalbumin or treated with Tg (100 nM) for 4 h and analyzed by IB. Images in A, B, F, and G represent at least two similar experiments, and molecular weights represent kD; E bar graphs represent mean ± SD from three independent biological repeats. Analysis for E was performed using unpaired, two-tailed t test; *, P ≤ 0.05; **, P ≤ 0.01. Source data are available for this figure: SourceData FS1. […]

ATF6 in BMDCs = test: ATF6 activation in BMDCs (immunoblot, proteolytic processing); format: cell-based, mouse; conditions: MG132 5 μM or ovalbumin 500 μg/ml, in words
Protocol: as §1

[2] = test system: IRE1α (XBP1s, pIRE1α) in BMDCs; test: IRE1α activation in BMDCs (immunoblot); format: cell-based, mouse; conditions: in words; for IRE1α activation: GM-CSF + IL-4 BMDCs, immunoblot for XBP1s/pIRE1α
Protocol: Figure 1. Antigen pulsing of BMDCs activates IRE1α. (A) BMDCs were pulsed with ovalbumin (starting at 62.5 μg/ml and sequentially doubled) and analyzed by immunoblot (IB) for the indicated markers. (B) BMDCs were pulsed with ovalbumin (starting at 500 μg/ml and sequentially halved) or […] (1 μM), or stimulated with tunicamycin (1 μg/ml) or poly-I:C (25 μg/ml) for 4 h, and analyzed by IB. (C) BMDCs were pulsed with ovalbumin (500 μg/ml) for indicated time points and analyzed by IB. (D) BMDCs were pulsed for 4 h with ovalbumin or lysates derived from the indicated cell lines (500 μg/ml protein) and analyzed by IB. […] (F) Upon removal from bone marrow, total bone marrow cells were transfected with non-targeting control (NTC) or TAP1-targeting gRNAs, along with CRISPR/Cas9 delivery constructs. Cells were then subjected to standard BMDC-differentiation protocol, pulsed with ovalbumin (500 μg/ml) for 4 h, and analyzed by IB. All IB images are representative of at least two similar experiments, and molecular weights represent kD. Source data are available for this figure: SourceData F1.
For purification and differentiation of BMDCs, the femur and tibia bones of C57BL/6 mice were flushed with sterile PBS, and bone marrow cells were then cultured in RPMI1640 media as described above and further supplemented with […] β2-mercaptoethanol (Sigma-Aldrich), 20 ng/ml GM-CSF (BioLegend), and 10 ng/ml IL-4 (BioLegend) for 9 d, with media being replenished every 3 d. Where indicated, Flt3L-BMDCs were similarly generated using media supplemented with 200 ng/ml recombinant mouse Flt3L (PeproTech; [Brasel et al., 2000]). After 9 d of culture, BMDCs were routinely verified to be >90% CD11c^+ MHC-II^high by flow cytometry analysis.
Thapsigargin (Sigma-Aldrich) was used at 100 nM, tunicamycin (Sigma-Aldrich) was used at 5 μg/ml, MG132 (Sigma-Aldrich) was used at 5 μM, Amiloride (Sigma-Aldrich) was used at 10 μM, actinomycin D (Sigma-Aldrich) was used at 4 μg/ml, LPS (Sigma-Aldrich) was used at 10 μg/ml, and poly-I:C (Sigma-Aldrich) was used at 25 μg/ml. Ovalbumin (Sigma-Aldrich), EF-OVA (EndoFit; InvivoGen), […] peptide (Sigma-Aldrich), and human CD4-Fc fusion protein (generated in-house at Genentech) were dissolved in PBS prior to pulsing and used at indicated concentrations.
Cells were lysed in PBS solution supplemented with 1X radioimmunoprecipitation assay buffer (Millipore) and 2X Halt protease-phosphatase inhibitor cocktail (Thermo Fisher Scientific). Upon clearance, samples were analyzed by SDS-PAGE, electrotransferred to nitrocellulose membranes (Invitrogen), and blocked by 5% powdered milk in PBSt (PBS supplemented with 0.1% tween) solution. Development was conducted with ECL reagent (Thermo Fisher Scientific) and imaging was performed with the ChemiDoc ZRS+ imager (Bio-Rad). Antibodies used for Western blot analysis include IRE1α (3294, rabbit; Cell Signaling Technology), β-actin (5125, rabbit; Cell Signaling), GAPDH (97166, mouse; Cell Signaling), ATF6 (66563-1-Ig, mouse; ProteinTech), TAP1 (12341, rabbit; Cell Signaling), CHOP (2895, mouse; Cell Signaling), ATF4 (11815, rabbit; Cell Signaling), ovalbumin (P1-196, rabbit; Thermo Fisher Scientific), human Fc (ab977225, rabbit; Abcam), Myc tag (2272, rabbit; Cell Signaling), and biotin (5597, rabbit; Cell Signaling). IRE1α lumenal domain (mouse), XBP1s (rabbit), and pIRE1α (rabbit) antibodies were generated at Genentech. Secondary antibodies used were for mouse (715-035-150; The Jackson Laboratory) and rabbit (711-035-152; The Jackson Laboratory).

[3] = test system: PERK (ATF4, CHOP) in BMDCs; test: PERK activation in BMDCs (immunoblot of ATF4 and CHOP); format: cell-based, mouse; conditions: MG132 5 μM or ovalbumin 500 μg/ml, in words
Protocol: as §1

heat-denatured ovalbumin = heat-denatured ovalbumin (UniProt P01012); test: ELISA; native or heat-denatured ovalbumin coated on a 96-well plate, blocked with 1% BSA; IRE1α LD-Fc (10 μg/ml) in PBS with 20 mM Hepes, 100 mM KOAc, 0.2% tween-20, 2 h, room temperature; detection with HRP-conjugated anti-human Fc antibody
IRE1α LD-Fc [4] = test: Co-immunoprecipitation of ovalbumin with IRE1α LD-Fc; format: binding, human; conditions: LD-Fc 10 μg/ml, 2 h; ovalbumin 1-300 μg/ml; in words
Protocol: (§2) For experiments testing ovalbumin binding, a human LD-Fc was used at indicated concentrations. LD-Fc is comprised of amino acids M1-D443 of IRE1α fused C-terminally to a linker ([…]) followed by the human IgG1 hinge and Fc portion. Ovalbumin (Sigma-Aldrich) was dissolved in sterile PBS and used in native state or denatured as indicated by incubation at 95°C buffer for 10 min.
For co-immunoprecipitation experiments, IRE1α LD-Fc (10 μg/ml) and ovalbumin (indicated concentrations) were co-incubated in binding buffer (as described above) for 2 h and then immunoprecipitated with anti-IRE1α LD antibody (made in-house at Genentech), conjugated to sepharose beads, overnight at 4°C. Beads were subsequently washed four times with lysis buffer and boiled in SDS sample buffer for 10 min. Samples were then analyzed by SDS-PAGE followed by immunoblot.

IRE1α LD-Fc [5] = test: Plate-based ovalbumin binding to IRE1α LD-Fc; design: species or system human; conditions: 2 h, room temperature
Protocol: as §2
For plate-based binding experiments, native or heat-denatured ovalbumin at indicated concentrations was bound to a flat-bottom 96-well plate (Corning Inc.) with coating buffer (BioLegend), washed with PBSt, blocked with 1% BSA in PBS, and subsequently incubated with IRE1α LD-Fc (10 μg/ml) in binding buffer composed of PBS with 20 mM Hepes, 100 mM KOAc, and 0.2% tween-20 for 2 h at room temperature. Plates were washed again with PBSt and incubated with an anti-human Fc HRP-conjugated antibody (ab977225; Abcam). Development was performed with 3,3′,5,5′-Tetramethylbenzidine solution and terminated with Stop solution (BioLegend). Readings were taken with a SpectraMax M2 spectrometer (Molecular Devices).

Molecule: lipopolysaccharide [LPS, reference compound]
- IRE1α activation, MyD88 KO BMDCs [1]: failed to activate IRE1α

Molecule: CC(C)C[C@@H](C=O)NC(=O)[C@H](CC(C)C)NC(=O)[C@H](CC(C)C)NC(=O)OCc1ccccc1 [MG132, reference compound] (Cbz-Leu-Leu-Leu-aldehyde)
- ATF6 activation (ATF6 in BMDCs): robust activation
- IRE1α activation [2]: robust activation
- PERK activation [3]: robust activation

Molecule: tunicamycin [reference compound]
- IRE1α activation [2]: potent pharmacological ER-stressor

Molecule: polyinosinic:polycytidylic acid [poly-I:C, reference compound]
- IRE1α activation [2]: much weaker IRE1α activation than did the potent pharmacological ER-stressor tunicamycin

Molecule: N=C(N)NC(=O)c1nc(Cl)c(N)nc1N [amiloride, reference compound]
- block of antigen-induced IRE1α activation ([2]; BMDCs pulsed with antigen 500 μg/ml, G9668 3 μM or amiloride 10 μM): blocked antigen-induced IRE1α stimulation in BMDCs

- Kd (heat-denatured ovalbumin): 300 µM
Molecule: IRE1α lumenal domain fused to an Fc tag (IRE1α LD-Fc) (from UniProt O75460 19-443) (Fc fusion)

Molecule: SIINFEKL [ovalbumin-derived octapeptide, reference compound]
- IRE1α activation [2]: little effect on IRE1α activity

- binding to immobilized IRE1α LD-Fc (IRE1α LD-Fc [5]; LD-Fc 10 μg/ml, in words): specific and saturable binding
- Kd (IRE1α LD-Fc [5]; plate-based, IRE1α LD-Fc 10 μg/ml, estimated, read-out: equilibrium dissociation constant (Kd)): ~300 µM
B1: heat-denatured ovalbumin: ovalbumin denatured by incubation at 95°C for 10 min (protein)
chain: MGSIGAASMEFCFDVFKELKVHHANENIFYCPIAIMSALAMVYLGAKDSTRTQINKVVRFDKLPGFGDSIEAQCGTSVNVHSSLRDILNQITKPNDVYSFSLASRLYAEERYPILPEYLQCVKELYRGGLEPINFQTAADQARELINSWVESQTNGIIRNVLQPSSVDSQTAMVLVNAIVFKGLWEKAFKDEDTQAMPFRVTEQESKPVQMMYQIGLFRVASMASEKMKILELPFASGTMSMLVLLPDEVSGLEQLESIINFEKLTEWTSSNVMEERKIKVYLPRMKMEEKYNLTSVLMAMGITDVFSSSANLSGISSAESLKISQAVHAAHAEINEAGREVVGSAEAGVDAASVSEEFRADHPFLFCIKHIATNAVLFFGRCVSP
- co-immunoprecipitation with IRE1α LD-Fc (IRE1α LD-Fc [4]): concentration-dependent association
